Source: US8623859B2, “Bradykinin B1 antagonists” (Evotec AG, priority 2008, dated 2014)
Structures can show the parent of a compound that is named as a salt.

Biological target: T1, human B1 (Homo sapiens, UniProt P46663)
T1 construct: host or cells: CHO-K1
T1 sequence (P46663 1-353): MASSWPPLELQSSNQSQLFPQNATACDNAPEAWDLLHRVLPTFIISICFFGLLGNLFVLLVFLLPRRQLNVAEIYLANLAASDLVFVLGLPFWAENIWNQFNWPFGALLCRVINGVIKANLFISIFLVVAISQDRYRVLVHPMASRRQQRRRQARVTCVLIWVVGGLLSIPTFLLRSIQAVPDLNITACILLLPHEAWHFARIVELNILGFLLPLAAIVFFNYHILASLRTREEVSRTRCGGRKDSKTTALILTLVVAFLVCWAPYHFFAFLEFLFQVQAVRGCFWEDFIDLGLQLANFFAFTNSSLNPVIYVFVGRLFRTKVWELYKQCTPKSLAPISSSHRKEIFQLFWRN
Assay: Calcium flux assay for Bradykinin B1 antagonist, CHO-K1 cell line expressing human B1
Type: cell-based
Details: CHO-K1 cells expressing human B1, agonist Lys-(Des-Arg)-Bradykinin, read-out: Potency (IC50 value against human B1)
How it was run: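 Inhibition of B1 agonist-evoked intracellular Ca2+ rise was followed by continuous fluorescence at 538 nm, with integrated, background-normalized signals plotted versus log compound concentration. Test compounds (eight 10-fold dilutions, triplicate, 1% DMSO final) were added 30 min at 25° C beforehand to Fluo-4AM-loaded human B1 CHO-K1 cells in pH 7.4 assay buffer.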

SMILES | IC50 [µM]
COc1cc(C)c(S(=O)(=O)N(Cc2cc(C(=O)N3CCN(CC4CCN(C)CC4)CC3)co2)C2CC2)c(C)c1 [Ex 105, N-Cyclopropyl-4-methoxy-2,6-dimethyl-N-{[4-({4-[(1-methylpiperidin-4-yl)methyl]piperazin-1-yl}carbonyl)furan-2-yl]methyl}benzenesulfonamide trifluoroacetate] | 0.01 to 0.1
COc1cc(C)c(S(=O)(=O)N(Cc2cc(C(=O)N3CCN(CCc4ccccn4)CC3)co2)C2CC2)c(C)c1 [Ex 114, N-Cyclopropyl-4-methoxy-2,6-dimethyl-N-[(4-{[4-(2-pyridin-2-ylethyl)piperazin-1-yl]carbonyl}furan-2-yl)methyl]benzenesulfonamide trifluoroacetate] | 0.1 to 1
COc1cc(C)c(S(=O)(=O)N(Cc2nc(C(=O)N3CCN(Cc4cnc5ccccc5c4)CC3)co2)C2CC2)c(C)c1 [Ex 254, N-Cyclopropyl-4-methoxy-2,6-dimethyl-N-[(4-{[4-(quinolin-3-ylmethyl)piperazin-1-yl]carbonyl}-1,3-oxazol-2-yl)methyl]benzenesulfonamide] | < 0.01
COc1cc(C)c(S(=O)(=O)N(Cc2nc(C(=O)N3CCC(C(=O)N4CCN(C)CC4)CC3)co2)C2CC2)c(C)c1 [Ex 229, N-Cyclopropyl-4-methoxy-2,6-dimethyl-N-{[4-({4-[(4-methylpiperazin-1-yl)carbonyl]piperidin-1-yl}carbonyl)-1,3-oxazol-2-yl]methyl}benzenesulfonamide trifluoroacetate] | 0.1 to 1
COc1cc(C)c(S(=O)(=O)N(Cc2nnc(C(=O)N3CCN(CC4CCN(C)CC4)CC3)s2)C2CC2)c(C)c1 [Ex 335, N-Cyclopropyl-4-methoxy-2,6-dimethyl-N-{[5-({4-[(1-methylpiperidin-4-yl)methyl]piperazin-1-yl}carbonyl)-1,3,4-thiadiazol-2-yl]methyl}benzenesulfonamide] | < 0.01
COc1cc(C)c(S(=O)(=O)N(C)Cc2nc(C(=O)N3CCN(CC4CCN(C)CC4)CC3)no2)c(C)c1 [Ex 321, 4-Methoxy-N,2,6-trimethyl-N-{[3-({4-[(1-methylpiperidin-4-yl)methyl]piperazin-1-yl}carbonyl)-1,2,4-oxadiazol-5-yl]methyl}benzenesulfonamide] | 0.1 to 1
COc1cc(C)c(S(=O)(=O)N(Cc2nc(C(=O)N3CCN(Cc4c[nH]cn4)CC3)co2)C2CC2)c(C)c1 [Ex 249, N-Cyclopropyl-N-[(4-{[4-(1H-imidazol-4-ylmethyl)piperazin-1-yl]carbonyl}-1,3-oxazol-2-yl)methyl]-4-methoxy-2,6-dimethylbenzenesulfonamide] | 0.01 to 0.1
COc1cc(C)c(S(=O)(=O)N(Cc2cc(C(=O)N(C)Cc3cccc(CN4CCCC4)c3)co2)C2CC2)c(C)c1 [Ex 55, 5-({Cyclopropyl[(4-methoxy-2,6-dimethylphenyl)sulfonyl]amino}methyl)-N-methyl-N-[3-(pyrrolidin-1-ylmethyl)benzyl]furan-3-carboxamide] | 0.01 to 0.1
COc1cc(C)c(S(=O)(=O)N(Cc2cc(C(=O)N3CCN(C4CC(C)(C)N(C)C(C)(C)C4)CC3)co2)C2CC2)c(C)c1 [Ex 108, N-Cyclopropyl-4-methoxy-2,6-dimethyl-N-[(4-{[4-(1,2,2,6,6-pentamethylpiperidin-4-yl)piperazin-1-yl]carbonyl}furan-2-yl)methyl]benzenesulfonamide trifluoroacetate] | 0.1 to 1
COc1cc(C)c(S(=O)(=O)N(C)Cc2noc(C(=O)N3CCN(CCCN(C)C)CC3)n2)c(C)c1 [Ex 309, N-{[5-({4-[3-(Dimethylamino)propyl]piperazin-1-yl}carbonyl)-1,2,4-oxadiazol-3-yl]methyl}-4-methoxy-N,2,6-trimethylbenzenesulfonamide] | 0.01 to 0.1

Other lines, results leading:

IC50 [µM] | SMILES
0.1 to 1 | COc1cc(C)c(S(=O)(=O)N(C)Cc2nc(C(=O)N(C)Cc3ccc(C[N+]4([O-])CCCC4)cc3)co2)c(C)c1 [Ex 159, 2-({[(4-Methoxy-2,6-dimethylphenyl)sulfonyl](methyl)amino}methyl)-N-methyl-N-{4-[(1-oxidopyrrolidin-1-yl)methyl]benzyl}-1,3-oxazole-4-carboxamide trifluoroacetate]
0.1 to 1 | COc1cc(C)c(S(=O)(=O)N(C)Cc2nc(C(=O)NCc3ccc(C4=NCCN4)cc3)co2)c(C)c1 [Ex 68, N-[4-(4,5-dihydro-1H-imidazol-2-yl)benzyl]-2-({[(4-methoxy-2,6-dimethylphenyl)sulfonyl](methyl)amino}methyl)-1,3-oxazole-4-carboxamide]
< 0.01 | COc1cc(C)c(S(=O)(=O)N(C)Cc2noc(C(=O)N(C)CCc3ccc(C4=NCCN4)cc3)n2)c(C)c1 [Ex 301, N-{2-[4-(4,5-Dihydro-1H-imidazol-2-yl)phenyl]ethyl}-3-({[(4-methoxy-2,6-dimethylphenyl)sulfonyl](methyl)amino}methyl)-N-methyl-1,2,4-oxadiazole-5-carboxamide trifluoroacetamide]
0.01 to 0.1 | COc1cc(C)c(S(=O)(=O)N(C)Cc2cc(C(=O)N(C)Cc3cc(CN4CCCC4)ccc3F)co2)c(C)c1 [Ex 156, N-[2-Fluoro-5-(pyrrolidin-1-ylmethyl)benzyl]-5-({[(4-methoxy-2,6-dimethylphenyl)sulfonyl](methyl)amino}methyl)-N-methylfuran-3-carboxamide trifluoroacetate]
0.1 to 1 | COc1cc(C)c(S(=O)(=O)N(C)Cc2cc(C(=O)N(C)Cc3ccc(CN4CC(OC)C4)cc3)co2)c(C)c1 [Ex 133, N-{4-[(3-Methoxyazetidin-1-yl)methyl]benzyl}-5-({[(4-methoxy-2,6-dimethylphenyl)sulfonyl](methyl)amino}methyl)-N-methylfuran-3-carboxamide]
< 0.01 | COc1cc(C)c(S(=O)(=O)N(C)Cc2nc(C(=O)N(C)Cc3ccc(CN4CCCC4)cc3)co2)c(C)c1 [Ex 71, 2({[(4-Methoxy-2,6dimethylphenyl)sulfonyl](methyl)amino}methyl)-N-methyl-N-[4-(pyrrolidin-1-ylmethyl)benzyl]-1,3-oxazole-4-carboxamide]
0.1 to 1 | COc1cc(C)c(S(=O)(=O)N(C)Cc2nc(C(=O)N(C)CCc3ccc(C4=NCCN4)cc3)cs2)c(C)c1 [Ex 80, N-{2-[4-(4,5-dihydro-1H-imidazol-2-yl)phenyl]ethyl}-2-({[(4-methoxy-2,6-dimethylphenyl)sulfonyl](methyl)amino}methyl)-N-methyl-1,3-thiazole-4-carboxamide]
0.1 to 1 | COc1cc(C)c(S(=O)(=O)N(C)Cc2nc(C(=O)N3CCN(CCN4CCCC4)CC3)co2)c(C)c1 [Ex 164, 4-Methoxy-N,2,6-trimethyl-N-[(4-{[4-(2-pyrrolidin-1-ylethyl)piperazin-1-yl]carbonyl}-1,3-oxazol-2-yl)methyl]benzenesulfonamide]
0.01 to 0.1 | COc1cc(C)c(S(=O)(=O)N(C)Cc2nc(C(=O)N(C)Cc3nc(CN4CCCC4)cs3)co2)c(C)c1 [Ex 202, 2-({[(4-Methoxy-2,6-dimethylphenyl)sulfonyl](methyl)amino}methyl)-N-methyl-N-{[4-(pyrrolidin-1-ylmethyl)-1,3-thiazol-2-yl]methyl}-1,3-oxazole-4-carboxamide trifluoroacetate]
< 0.01 | COc1cc(C)c(S(=O)(=O)N(Cc2nc(C(=O)N3CCN(Cc4ccc(OC)nc4)CC3)co2)C2CC2)c(C)c1 [Ex 235, N-Cyclopropyl-4-methoxy-N-{[4-({4-[(6-methoxypyridin-3-yl)methyl]piperazin-1-yl}carbonyl)-1,3-oxazol-2-yl]methyl}-2,6-dimethylbenzenesulfonamide trifluoroacetate]
0.1 to 1 | COc1cc(C)c(S(=O)(=O)N(C)Cc2nnc(C(=O)N(C)Cc3ccc(CN4CCC(OC)C4)cc3)o2)c(C)c1 (stereo not shown) [Ex 282, 5-({[(4-Methoxy-2,6-dimethylphenyl)sulfonyl](methyl)amino}methyl)-N-{4-[(3-methoxypyrrolidin-1-yl)methyl]benzyl}-N-methyl-1,3,4-oxadiazole-2-carboxamide]
< 0.01 | COc1cc(C)c(S(=O)(=O)N(C)Cc2cc(C(=O)N(C)Cc3ccc(CN4CCCC(O)C4)cc3)co2)c(C)c1 (stereo not shown) [Ex 134, N-{4-[(3-Hydroxypiperidin-1-yl)methyl]benzyl}-5-({[(4-methoxy-2,6-dimethylphenyl)sulfonyl](methyl)amino}methyl)-N-methylfuran-3-carboxamide]
